Where two headings read alike, the source gives them in different places.
How the values were obtained:
U373 glioma cells = test: MTT test, overall cell growth, U373; format: cell-based, human; details: 72 hours of incubation
Experimental: (§1) MTT tests were performed in order to rapidly, i.e., within 5 days, measure the effect of the present compounds on the overall cell growth. The test measured the number of metabolically active living cells that were able to transform the yellow product 3-(4,5-dimethylthiazol-2-yl)-2,5-diphenyl tetrazolium bromide (herein referred as MTT) into the blue product formazan dye by mitochondrial reduction. The amount of formazan obtained at the end of the experiment, measured by means of a spectrophotometer, is directly proportional to the number of living cells. Optical density determination thus enabled a quantitative measurement of the effect of the investigated compounds as compared to the control condition (untreated cells) and/or to other reference compounds.
(§2) Five human cancer cell lines set forth in Table 3 were used in the MTT tests. These cancer cell lines cover two histological cancer types including glioma (Hs683, T98G, U373), and oesophageal (OE21, OE33) cancers. The U373 cell line is apoptosis-resistant but autophagy-sensitive.
(§3) To perform the assay, cells were allowed to grow in 96-well micro-wells with a flat bottom with an amount of 100 μl of cell suspension per well with 5,000 to 8,000 cells/well depending on the cell type used. Each cell line was seeded in its appropriate culture medium.
(§4) The detailed experimental procedure was as follows: after a 24-hour period of incubation at 37° C., the culture medium was replaced by 100 μl of fresh medium in which the tested compound was previously dissolved, at the following molar concentrations: 1×10^−8 M, 5×10^−8 M, 1×10^−7 M, 5×10^−7 M, 1×10^−6 M, 5×10^−6 M, 1×10^−5 M, 5×10^−5 M and 1×10^−4 M. Each experiment was performed in sestuplicate (6 times).
(§5) After 72 hours of incubation at 37° C. with (experimental conditions) or without (control condition) the compound to be tested, the medium was replaced by 100 μl MTT dissolved in RPMI (1640 without phenol red) at a concentration of 0.5 or 1 mg/ml. The micro-wells were subsequently incubated during 3 hours and a half at 37° C. and centrifuged at 1300 rpm during 10 minutes. MTT was removed and formazan crystals formed were dissolved in […]. The micro-wells were shaken for 5 minutes and read on a spectrophotometer at wavelengths of 570 nm (maximal formazan absorbance).
(§6) For each experimental condition, the mean optical density was calculated, allowing the determination of the percentage of remaining living cells in comparison to the control.
(§7) The origin of all the cell lines we used, along with their biological characteristics, and the validation procedures of the MTT colorimetric assay as employed here are fully detailed in Van Quaquebeke et al., 2005, J Med Chem 48:849-856; Ingrassia et al., 2009, J Med Chem 52:1100-1114; Mathieu et al., 2009, J Cell Mol Med, Feb. 20, 2009.

T98G glioma cells = test: MTT test, overall cell growth, T98G; format: cell-based, human; details: 72 hours of incubation
Experimental: as §1, §2, §3, §4, §5, §6, §7

Hs683 glioma cells = test: MTT test, overall cell growth, Hs683; format: cell-based, human
Experimental: as §1, §2, §3, §4, §5, §6, §7

[1] = test system: OE21 oesophageal cancer cells; test: MTT test, overall cell growth, OE21; format: cell-based, human
Experimental: as §1, §2, §3, §4, §5, §6, §7

[2] = test system: OE33 oesophageal cancer cells; test: MTT test, overall cell growth, OE33; format: cell-based, human
Experimental: as §1, §2, §3, §4, §5, §6, §7

[3] = test system: human cancer cell lines (U373, T98G, Hs683, OE21, OE33); test: MTT test, mean over the cancer cell lines; format: cell-based
Experimental: as §1, §2, §3, §4, §5, §6, §7

U373 cells = test: Cellular imaging (videomicroscopy) of cultured U373 cells: antiproliferative class and global growth ratio; format: cell-based, human; parameters: key to Anti proliferative class / anti-proliferative class-GGR: class I: actually cytostatic for 3 days (<10% of cell death at the 3rd day); class II: cyctostatic but becomes cytotoxic with <10% cell death on the 2nd day, and >20% of cell death on the 3rd day; class III: cytostatic but rapidly becomes cytotoxic with <10% cell death on the 1st day, >20% of cell death on the 2nd day and >50% of cell death on the 3rd day; class IV: cytotoxic (>50% of cell death on the first day); details: for global growth ratio (GGR): GG treated cells/GG control cells, 72 h after drug addition, drug at its IC50 (MTT-test determined); for Anti proliferative class: cellular imaging of cultured U373 cells over three consecutive days
Excerpt: The effects of the di- and tri-substituted beta-carboline derivatives as described herein can also be determined on cell proliferation, migration and morphology by means of a cellular imaging approach (Debeir et al., Cytometry 60:29-40, 2004; Debeir et al., IEEE Trans Med Imaging 24:697-711, 2005) either in, e.g., the human U373-MG glioma cell line, which is apoptosis-resistant but autophagy-sensitive (Lefranc F et al., Neurosurgery 2008) or in, e.g., the human A549 non-small-cell-lung cancer cell line, which is apoptosis-resistant and autophagy-resistant (Mijatovic T et al., Neoplasia 2006, May; 8(5):402-12).
[…] The experiments are conducted in quadruplicates.
The behaviour of the cells, in terms of morphology, growth and death are thus investigated. The effect on the overall growth is measured by counting the number of cells on the first (0 h) and the last image (72 h) of each film. The global growth ratio (GGR) is then deduced by dividing the number of cells on the last image by the number of cells on the first image. The ratio GGRtreated cells/GGRcontrol cells is further calculated thereby providing a value that describes the effect of compounds of the present invention on the overall cell growth.
The methodology is fully described and validated in Debeir et al., 2008, Exp Cell Res 314:2985-2998 and Mathieu et al., 2009, J Cell Mol Med, Feb. 20, 2009.

[4] = Homo sapiens, Hs 683, 72 hours of incubation
[5] = Homo sapiens, OE21, 72 hours of incubation
[6] = Homo sapiens, OE33, 72 hours of incubation
[7] = Homo sapiens, Glioma cell, MTT assay, submicromolar range, e.g. as low as, read-out: mean anti-proliferative effect on the glioma cell lines
[8] = Homo sapiens, mean over the cancer cell lines, MTT test, read-out: IC50 Mean ± SEM
[9] = mean over the cancer cell lines, MTT test, read-out: IC50 Mean ± SEM

Row | Compound | melting point | IC50 (U373 glioma cells; Homo sapiens, U373 MG) | IC50 (T98G glioma cells; Homo sapiens, T98G) | IC50 (Hs683 glioma cells; [4]) | IC50 [1, 5] | IC50 [2, 6] | IC50 [3, 7] | IC50 [3, 8] | global growth ratio (GGR) (U373 cells) | Anti proliferative class (U373 cells) | IC50 (U373 glioma cells) | IC50 (T98G glioma cells) | IC50 (Hs683 glioma cells; 72 hours of incubation) | IC50 ([1]; 72 hours of incubation) | IC50 ([2]; 72 hours of incubation) | IC50 [3, 9]
1 | Cc1nccc2c1[nH]c1cc(OCCCC(F)(F)F)ccc12 [JR110] |  |  |  |  |  |  |  |  | 0.2 | IV (class IV: cytotoxic (>50% of cell death on the first day)) | > 100 µM | 86 ± 11 µM | > 100 µM | > 100 µM | > 100 µM | > 97 µM
2 | Cc1nccc2c1[nH]c1cc(OCCO)ccc12 [JR226] |  |  |  |  |  |  |  |  | 0.3 | I (class I: actually cytostatic for 3 days (<10% of cell death at the 3rd day)) | 42 ± 2 µM | 53 ± 3 µM | 41 ± 3 µM | 30 ± 4 µM | 63 ± 4 µM | 46 ± 6 µM
3 | Cc1c2c(cc[n+]1Cc1ccccc1F)c1ccc(OCc3cccc(F)c3)cc1n2Cc1cccc(F)c1.[Br-] [CV19, 1-methyl-2-(2-fluorobenzyl)-7-(3-fluorobenzyl)oxy-9-(3-fluorobenzyl)-β-carbolin-2-ium bromide] |  | 0.6 ± 0.2 µM | 0.7 ± 0.2 µM | 2.2 ± 0.2 µM | 1.4 ± 0.3 µM | 3 ± 0.2 µM |  | 1.6 ± 0.4 µM | 0.2 | I (class I: actually cytostatic for 3 days (<10% of cell death at the 3rd day)) |  |  |  |  |  | 
4 | Cc1nccc2c3ccc(OCc4ccc(F)cc4)cc3n(Cc3ccc(F)cc3)c12 [CV11, 1-methyl-7-(4-fluorobenzyloxy)-9-(4-fluorobenzyl)-β-carboline] |  | 30 ± 1 µM | 14 ± 2 µM | 17 ± 2 µM | 15 ± 2 µM | 25 ± 2 µM |  | 20 ± 3 µM | 0.2 | III |  |  |  |  |  | 
5 | Cc1c2c(cc[n+]1Cc1ccccc1F)c1ccc(OCc3ccccc3)cc1n2Cc1ccccc1.[Br-] [CV18, 1-methyl-2-(2-fluorobenzyl)-7-benzyloxy-9-benzyl-β-carbolin-2-ium bromide] |  | 0.5 ± 0.2 µM | 0.37 ± 0.01 µM | 0.44 ± 0.04 µM | 0.38 ± 0.02 µM | 0.7 ± 0.08 µM | 0.34 to 0.8 µM | 0.48 ± 0.06 µM | 0.3 | I (class I: actually cytostatic for 3 days (<10% of cell death at the 3rd day)) |  |  |  |  |  | 
6 | C=CCOc1ccc2c(c1)[nH]c1c(C)nccc12 [JR211] |  |  |  |  |  |  |  |  | 0.2 | II | 32 ± 2 µM | 32 ± 0.7 µM | 28 ± 1 µM | 27 ± 2 µM | 29.8 ± 0.7 µM | 30 ± 1 µM
7 | Cc1c2[nH]c3cc(OCc4ccccc4)ccc3c2cc[n+]1Cc1ccccc1 [JR88] |  |  |  |  |  |  |  |  | 0.2 | II | 3.9 ± 0.2 µM | 5.6 ± 0.2 µM | 3.6 ± 0.1 µM | 6 ± 0.6 µM | 5.5 ± 0.3 µM | 5 ± 1 µM

The next lines start with results.

Row | melting point | IC50 (U373 glioma cells; Homo sapiens, U373 MG) | IC50 (T98G glioma cells; Homo sapiens, T98G) | IC50 (Hs683 glioma cells; [4]) | IC50 [1, 5] | IC50 [2, 6] | IC50 [3, 7] | IC50 [3, 8] | Compound | global growth ratio (GGR) (U373 cells) | Anti proliferative class (U373 cells) | IC50 (U373 glioma cells) | IC50 (T98G glioma cells) | IC50 (Hs683 glioma cells; 72 hours of incubation) | IC50 ([1]; 72 hours of incubation) | IC50 ([2]; 72 hours of incubation) | IC50 [3, 9]
8 | 106.4 °C |  |  |  |  |  |  |  | Cc1nccc2c3ccc(OCCC(C)C)cc3n(CCC(C)C)c12 [PL3, 1-methyl-7-(3-methylbutyloxy)-9-(3-methylbutyl)-β-carboline] |  |  |  |  |  |  |  | 
9 |  | 0.43 ± 0.07 µM | 0.4 ± 0.04 µM | 0.9 ± 0.1 µM | 0.5 ± 0.09 µM | 1.4 ± 0.1 µM | 0.34 to 0.8 µM | 0.8 ± 0.2 µM | Cc1c2c(cc[n+]1Cc1ccccc1)c1ccc(OCc3ccc(F)cc3)cc1n2Cc1ccc(F)cc1.[Br-] [CV23, 1-methyl-2-benzyl-7-(4-fluorobenzyl)oxy-9-(4-fluorobenzyl)-β-carbolin-2-ium bromide] | 0.3 | I (class I: actually cytostatic for 3 days (<10% of cell death at the 3rd day)) |  |  |  |  |  | 
10 |  | 0.9 ± 0.1 µM | 1.9 ± 0.3 µM | 4.5 ± 0.4 µM | 2.9 ± 0.1 µM | 3.4 ± 0.1 µM |  | 2.7 ± 0.6 µM | Cc1c2c(cc[n+]1Cc1ccc(F)cc1)c1ccc(OCc3cccc(F)c3)cc1n2Cc1cccc(F)c1.[Br-] [CV22, 1-methyl-2-(4-fluorobenzyl)-7-(3-fluorobenzyl)oxy-9-(3-fluorobenzyl)-β-carbolin-2-ium bromide] | 0.5 | I (class I: actually cytostatic for 3 days (<10% of cell death at the 3rd day)) |  |  |  |  |  | 

Source: patent US9168247B2, “Beta carboline derivatives useful in the treatment of proliferative disorders” (FACULTES UNIVERSITAIRES NOTRE DAME DE LA PAIX, priority 2010, dated 2015)
